The text below walks through data of patent US7425579B2, “Methods for inhibiting activity of polyamine transporters” (Universite Laval, priority 1998, dated 2008).

One may read the Ki as the dissociation constant of the complex between target and ligand, obtained from inhibition or displacement.

Test [1] concerns polyamine transport system. As to the kind of experiment: Time course of [3H]spermidine accumulation in ZR-75-1 cells. It is filed as cell-based, human. The settings on record: after 8 h. How it is done: (§1) In particular, exponentially growing T-47D (A) or ZR-75-1 cells (B and C) were transferred to serum-free medium containing 5 μM [^3H]spermidine, and either 200 μM cycloheximide (CHX) (●), 100 μM BNSD-X (□), CHX plus BNSD-X (▪), or vehicle only (∘). Cells were incubated for the time intervals indicated prior to harvesting for detrmination of total intracellular radioactivity. ZR-75-1 cells were either pre-incubated for 48 h in the absence (panel B) or presence of 1 mM DFMO (panel C) prior to the experiment shown; DFMO was also included during the labeling period in the appropriate group. Data are presented as the mean±SD for triplicate cultures from one representative experiment;
The effect of BNSD-X on the time course of [^3H]spermidine accumulation was determined in ZR-75-1 and T-47D cells pre-incubated in the presence or absence of DFMO before addition of radioactive substrate and the transport inhibitor. Subgroups of cell cultures were also treated with cycloheximide in order to prevent the polyamine-dependent induction of ODC antizyme, which rapidly down-regulates polyamine transport activity through an unknown mechanism (Lessard et al. (1995) J. Biol. Chem. 270, 1685-1694; Coffino et al. (2001) Nat Rev Mol Cell Biol. 2:188-194). […]

For test [2], the system named is polyamine transport system. Briefly: Time course of [3H]spermidine accumulation in T-47D cells. The format is cell-based, human. How it is done:
as §1
The effect of BNSD-X on the time course of [^3H]spermidine accumulation was determined in ZR-75-1 and T-47D cells pre-incubated in the presence or absence of DFMO before addition of radioactive substrate and the transport inhibitor. Subgroups of cell cultures were also treated with cycloheximide in order to prevent the polyamine-dependent induction of ODC antizyme, which rapidly down-regulates polyamine transport activity through an unknown mechanism (Lessard et al. (1995) J. Biol. Chem. 270, 1685-1694; Coffino et al. (2001) Nat Rev Mol Cell Biol. 2:188-194). As expected, [^3H]spermidine accumulation reached a plateau after approximately 2 h in both […], but increased in an approximately linear fashion for the first 6-8 h in the presence of cycloheximide, consistent with relief from feedback repression of polyamine transport as a result of inhibition of antizyme synthesis. At a BNSD-X:spermidine ratio of 20:1, the triamine dimer decreased net [^3H]spermidine uptake in T-47D cells after 8 h by 92% and 80% in the presence or absence of cycloheximide, respectively (FIG. 7A), whereas it inhibited spermidine accumulation by 90 and 65%, respectively, under the same conditions in ZR-75-1 cells (FIG. 7B). […]

Test [3] deals with mammalian polyamine carrier. As to the kind of experiment: Determination of polyamine uptake activity: inhibition of diamine and polyamine transport in T-47D cells. The format is cell-based, human. To be noted: T-47D breast cancer cells; mean±SD; read-out: Ki, inhibition of [3H]putrescine uptake. How it is done: The rate of diamine and polyamine transport was determined in T-47D and ZR-75-1 cells incubated in serum-free RPMI 1640 medium as previously described (U.S. Pat. No. 6,083,496; Covassin et al. (1999) Bioorg. Med. Chem. Lett. 9, 1709-1714), using 20 μM [^3H]putrescine (179 Ci/mol), 5 μM [^3H]spermidine (246 Ci/mol) and 3 μM [^14C]spermine (300-400 mCi/mol) respectively, as substrates for a 20-min assay period. Uptake activity was expressed per amount of DNA as fluorometrically determined using 3,5-diaminobenzoic acid (Simard et al. (1990) Endocrinology 126, 3223-3231). Kinetic parameters of polyamine transport inhibition for the transport antagonists were determined by Lineweaver-Burke analysis of uptake activity in the presence of 0.1 μM [^3H]putrescine, 0.03 μM [^3H]spermidine, and 0.01 μM [^14C]spermine plus increasing concentrations of nonradioactive substrate. For competitive inhibitors, Ki values were estimated by iterative curve fitting for sigmoidal equations describing transport rates in the presence of increasing concentrations of antagonist, using the Cheng-Prusoff equation for competitive inhibition (U.S. Pat. No. 6,083,496).
The ability of BSD and BNSD compounds to inhibit uptake of the main natural substrates of the mammalian polyamine carrier, namely putrescine, spermidine and spermine, was evaluated using T-47D human breast cancer cells (Table 1).
Data are presented as the mean±SD of at least two independent determinations of IC50 values, each based on triplicate determinations of uptake velocity at increasing inhibitor concentrations.
The potency of the polyamines and their xylylated dimers as competitive inhibitors of spermidine transport was evaluated in the T-47D human breast cancer cell line (Table 2).

The subject of another test is CHO-MG cells. As to the kind of experiment: Potentiation of DFMO-induced cytostasis in polyamine transport-deficient CHO-MG cells. The format is cell-based, Chinese hamster. To be noted: 2 mM DFMO; 4 d; polyamine transport mutant. As to the method:
FIGS. 9A and 9B are graphs showing that potentiation of DFMO-induced cytostasis by a compound used in a method according to a preferred embodiment of the invention requires a functional polyamine transport system. In particular, CHO-TOR cells (A) and their polyamine transport-deficient mutant subline CHO-MG (B) were grown in medium containing 1 mM aminoguanidine and the indicated concentration of spermidine, in the presence of 2 mM DFMO (●), BNSD-X (□), DFMO+BNSD-X (▪), or vehicle only (∘). Cells were harvested after 4 d for determination of total DNA/well. Data are presented as the mean±SD for triplicate cultures from one representative experiment;
To determine the ability of polyamine transport antagonists to potentiate DFMO-induced inhibition of cell proliferation in the presence of exogenous polyamines, cells were grown for the indicated period in growth medium supplemented with 1 mM aminoguanidine, and either DFMO (1 to 5 mM), the indicated transport inhibitor (50 or 100 μM), or the combination thereof, as well as increasing concentrations of spermidine (0.1 to 300 μM). Fresh medium was added every other day, and cell mass was determined at various time points during the period of exponential growth, or at the end of the experimental period. […]

With `NCCCN(CCCN)Cc1ccc(CN(CCCN)CCCN)cc1` [28a, N,N,N′,N′-tetrakis-(3-aminopropyl)-p-diaminoxylene], in test [1] (BNSD-X:spermidine 20:1), the “inhibition of spermidine accumulation, without cycloheximide” value was 65%. In addition, the “inhibition of spermidine accumulation, with cycloheximide” value in test [1] (BNSD-X:spermidine 20:1, 200 μM cycloheximide) was determined as 90%. For the same compound, in test [2] (20-fold excess of BNSD-X, T-47D and ZR-75-1), the “residual rate of spermidine influx, of the maximal rate of spermidine accumulation” value is recorded as 8-10%. Moreover, in test [2] (T-47D, after 8 h, BNSD-X:spermidine 20:1), the “decrease of net [3H]spermidine uptake, without cycloheximide” value came out at 80%. For the same compound, the “decrease of net [3H]spermidine uptake, with cycloheximide” value in test [2] (T-47D, after 8 h, BNSD-X:spermidine 20:1 (100 μM:5 μM), 200 μM cycloheximide) came out at 92%. The Ki in test [3] amounted to 160 ± 30 nM. The “potentiation of DFMO-induced cytostasis in the absence of exogenous spermidine, CHO-MG” value in the test on CHO-MG cells was “not in the polyamine transport mutant”.
